Laboratory results reported in patent US20230330093A1, “APPLICATION OF NITROGEN-CONTAINING SATURATED HETEROCYCLIC COMPOUND” (SHANGHAI PHARMACEUTICALS HOLDING CO., LTD., priority 2020, published 2023).
Values joined by “and” are separate entries in the source; they are usually repeats but may differ in a detail not shown here. Identical values can stand only once. “Also recorded” adds a separate entry of the source.

How the values were obtained:
[1] = tested on: rhesus monkeys with spontaneous chronic kidney disease (CKD); test: Effect on UACR (proteinuria), 8-week oral administration; format: in vivo, Macaca mulatta (Rhesus Macaque); conditions: for MALB: Valsartan group 2.67 mg/kg/time oral (qd wk 1-2, bid wk 3-8); for MALB / UACR change rate / UACR: per animal + Mean ± SD; for UACR change rate: 8 weeks vs baseline, negative = decrease
Experimental: CKD-EPI rating […]-G3b, glomerular filtration rate eGFR: 30 59 ml/min/1.73 m^2; or moderate to severe increase in proteinuria (A2-A3): urine albumin/creatinine ratio (UACR)>15 mg/g-350 mg/g (4-6 hour urine collection), vs. age-matched control group 3±2 mg/g. In the trial, animals were brought in three stages. […] ELISA kit was used for NT-proBNP test. [table]

[2] = tested on: rhesus monkeys with spontaneous chronic kidney disease; test: Effect on heart function, cardiac Doppler ultrasound, 8-week administration; conditions: for Ea / LVEF: Valsartan group (n = 3)
Experimental: In the trial, animals were brought in three stages.
This was performed once before administration and once after administration. UACR=MALB/Cr—U. • Blood pressure: the blood pressure was checked after anesthesia, including systolic blood pressure (SBP), diastolic blood pressure (DBP), mean blood pressure (MBP) and heart rate (HR). This was performed once before administration and once at weeks 4 and 8 respectively after administration. • Cardiac GE Doppler ultrasound: historical cardiac ultrasonography once within 1 year (selected animals), once before administration (within 30 days (D-30) of the baseline period), and once at week 8 after administration.
Anesthesia method: 15 mg/kg of ketamine hydrochloride was used for intramuscular injection anesthesia. According to the animal anesthesia state, the supplemental anesthesia will be performed after judgment by veterinarian. Each supplemental anesthesia dose was ½ of the initial dose.
Detection method: The animal was placed in the left decubitus position, and the 6S-RS probe (frequency 2.7-8.0 MHz) was used for image acquisition.
Analysis method: After the image was collected and saved, the supporting analysis workstation EchoPAC Software was used to repeatedly detect various indicators of systolic and diastolic functions in 3 consecutive cardiac cycles.
Testing indicators and ultrasonic technology: see Table 9 below.
Testing equipment: GE Vivid S5 color Doppler ultrasound diagnostic system.

[3] = tested on: rhesus monkeys with spontaneous chronic kidney disease; test: Effect on glomerular filtration rate eGFRcreat-cys, 8-week administration; format: in vivo, Macaca mulatta (Rhesus Macaque); conditions: for eGFRcreat-cys / eGFRcreat-cys Change value (8 weeks): Valsartan group (n = 3); for eGFRcreat-cys Change value (8 weeks): 8 weeks − Baseline
Experimental: CKD-EPI rating […]-G3b, glomerular filtration rate eGFR: 30 59 ml/min/1.73 m^2; or moderate to severe increase in proteinuria (A2-A3): urine albumin/creatinine ratio (UACR)>15 mg/g-350 mg/g (4-6 hour urine collection), vs. age-matched control group 3±2 mg/g. In the trial, animals were brought in three stages. […] Glomerular filtration rate […]: creatinine (Cr-P), urea nitrogen (BUN) and cystatin (CysC) were detected, and the eGFR value was obtained by calculation. It was performed once before the administration and once every two weeks after the administration. […] ELISA kit was used for NT-proBNP test. [table] Selected […] in each group: 30 59 ml/min/1.73 m^2. The changes in the glomerular filtration rate of W8 and baseline were analyzed.

[4] = Baseline, single animals and Mean ± SD

For `CCCCC(=O)N(Cc1ccc(-c2ccccc2-c2nnn[nH]2)cc1)[C@H](C(=O)O)C(C)C` [Valsartan, reference compound], the MALB ([1]; 8 weeks) was 6.2 mg/L and 39.9 mg/L and 19.5 mg/L, the MALB ([1]; 8 weeks, mean) was 21.9 ± 17.0 mg/L and the MALB ([1]; Baseline) was 7.1 mg/L and 60.0 mg/L and 25.8 mg/L. The MALB ([1]; Baseline, mean) was 31.0 ± 26.8 mg/L, the UACR change rate ([1]; Valsartan group 2.67 mg/kg/time oral) was -41.10% and -69.59% and 35.88% and the UACR change rate ([1]; Valsartan group 2.67 mg/kg/time oral, mean) was −24.93 ± 54.56%. For the same compound, the “UACR Benefit assessment” value ([1]; Valsartan group 2.67 mg/kg/time oral, 8 weeks, per animal) was “both showed benefit; also recorded: the benefit was not obvious”, the UACR ([1]; Valsartan group 2.67 mg/kg/time oral, 8 weeks) was 22.0 mg/g and 19.3 mg/g and 20.4 mg/g and the UACR ([1]; Valsartan group 2.67 mg/kg/time oral, 8 weeks, mean) was 20.6 ± 1.3 mg/g. The UACR ([1]; Valsartan group 2.67 mg/kg/time oral, Baseline) was 15 mg/g and 37.3 mg/g and 63.6 mg/g and 15.0 mg/g and 38.7 ± 24.3 mg/g, the “UACR of W8 decreased by, compared with the baseline” value ([1]; Valsartan group, 2 animals (No. 2091, No. 4861)) was 40%-70% and the “W8 UACR after administration” value ([1]; Valsartan group, one animal with baseline UACR 15 mg/g) was 20.4%. For the same compound, the Ea ([2]; 8 weeks) was 7.01 cm/s and 7.17 cm/s and 4.61 cm/s, the LVEF ([2]; 8 weeks) was 64.09% and 57.98% and 61.97% and the Ea ([2]; Baseline) was 4.16 cm/s and 5.14 cm/s and 3.44 cm/s. For the same compound, the LVEF [2, 4] was 64.02% and 58.75% and 59.26%, the “adverse reaction in the systolic and diastolic function (echocardiography)” value ([2]; each dose group, 8-week administration) was “no obvious adverse reaction” and the “eGFRcreat-cy, Change value” ([3]; Valsartan group 2.67 mg/kg/time oral (qd wk 1-2, bid wk 3-8), Baseline, per animal + Mean ± SD) was 0 ml/min/1.73 m^2. The “eGFRcreat-cy, Change value” ([3]; Valsartan group 2.67 mg/kg/time oral (qd wk 1-2, bid wk 3-8), Baseline, per animal + Mean ± SD, mean) was 0 ± 0 ml/min/1.73 m^2, the “eGFRcreat-cy, Change value” ([3]; Valsartan group 2.67 mg/kg/time oral, 2 weeks vs baseline, per animal + Mean ± SD) was 4 ml/min/1.73 m^2 (2×) and 6 ml/min/1.73 m^2 and the “eGFRcreat-cy, Change value” ([3]; Valsartan group 2.67 mg/kg/time oral, 2 weeks vs baseline, per animal + Mean ± SD, mean) was 5 ± 1 ml/min/1.73 m^2. For the same compound, the “eGFRcreat-cy, Change value” ([3]; Valsartan group 2.67 mg/kg/time oral, 4 weeks vs baseline, per animal + Mean ± SD) was 1 ml/min/1.73 m^2 and 7 ml/min/1.73 m^2 and 6 ml/min/1.73 m^2, the “eGFRcreat-cy, Change value” ([3]; Valsartan group 2.67 mg/kg/time oral, 4 weeks vs baseline, per animal + Mean ± SD, mean) was 5 ± 3 ml/min/1.73 m^2 and the “eGFRcreat-cy, Change value” ([3]; Valsartan group 2.67 mg/kg/time oral, 6 weeks vs baseline, per animal + Mean ± SD) was 1 ml/min/1.73 m^2 and 5 ml/min/1.73 m^2 and 7 ml/min/1.73 m^2. For the same compound, the “eGFRcreat-cy, Change value” ([3]; Valsartan group 2.67 mg/kg/time oral, 6 weeks vs baseline, per animal + Mean ± SD, mean) was 4 ± 3 ml/min/1.73 m^2, the “eGFRcreat-cy, Change value” ([3]; Valsartan group 2.67 mg/kg/time oral, 8 weeks vs baseline, per animal + Mean ± SD (p<0.01 vs placebo)) was 6±2 ml/min/1.73 m^2 and 5 ml/min/1.73 m^2 and 8 ml/min/1.73 m^2 and the eGFRcreat-cys ([3]; 2 weeks) was 58 ml/min/1.73 m^2 and 54 ml/min/1.73 m^2 and 46 ml/min/1.73 m^2. For the same compound, the eGFRcreat-cys ([3]; 2 weeks, group mean) was 53 ± 6 ml/min/1.73 m^2, the eGFRcreat-cys ([3]; 4 weeks) was 55 ml/min/1.73 m^2 and 57 ml/min/1.73 m^2 and 46 ml/min/1.73 m^2 and the eGFRcreat-cys ([3]; 4 weeks, group mean) was 53 ± 6 ml/min/1.73 m^2. For the same compound, the eGFRcreat-cys ([3]; 6 weeks) was 55 ml/min/1.73 m^2 and 47 ml/min/1.73 m^2, the eGFRcreat-cys ([3]; 6 weeks, group mean) was 53 ± 5 ml/min/1.73 m^2 and the eGFRcreat-cys ([3]; 8 weeks) was 60 ml/min/1.73 m^2 and 59 ml/min/1.73 m^2 and 46 ml/min/1.73 m^2. The “eGFRcreat-cys Change value (8 weeks)” value [3] was 5 ml/min/1.73 m^2 and 8 ml/min/1.73 m^2, the “eGFRcreat-cys Change value (8 weeks)” value ([3]; group mean) was 6 ± 2 ml/min/1.73 m^2 and the eGFRcreat-cys ([3]; 8 weeks, group mean) was 55 ± 8 ml/min/1.73 m^2. For the same compound, the eGFRcreat-cys [3, 4] was 55 ml/min/1.73 m^2 and 50 ml/min/1.73 m^2 and 40 ml/min/1.73 m^2 and the eGFRcreat-cys ([3]; Baseline, single animals and Mean ± SD, group mean) was 48 ± 7 ml/min/1.73 m^2.
